Tests used:
Format in all cases: cell-based, rat
cyclin B1 = assay: Western blot of synchronized PC12 cells, cyclin B1; conditions: Western blot of G1/S- or G2/M-blocked PC12 cells (FIG. 3d)
Procedure: (§1) The cell-immobilized electrode was treated with 2 mM thymidine in culture medium (RPMI 1640) for 18 hrs, followed by an 8 hrs release (replaced by fresh medium), and then again with 2 mM thymidine for another 18 hrs to block cells in G1/S-phase (FIG. 1c). Similarly, another cell-immobilized electrode was treated initially with 2 mM thymidine as mentioned before for 18 hrs, followed by a 4 hrs release (replaced by fresh medium), and then with 100 ng/ml of nocodazole for another 10 h to block cells in G2/M-phase (FIG. 1c). Therefore, the working electrodes were prepared for electrochemical signal analysis of the cells in different phases of the cell cycle. Furthermore, for the time-dependent progression of G1/S-phase towards G2/M-phase, G1/S-blocked cells were released in fresh medium containing 10% FBS for several hours to perform electrochemical measurements. The synchronized PC12 cell pellet was solubilized for 15 min at 4° C. in lysis buffer. Lysates were centrifuged at 13,000 g for 30 min at 4° C. in order to remove insoluble material. The supernatant was then collected, and the protein concentration was determined using BCA protein assay reagent (Pierce Chemicals). […]

PC12 cells [1] = assay: FACS cell-cycle distribution of on-chip synchronized cells; conditions: 2 mM thymidine 18 hrs
Procedure: (§2) A silicon-based gold electrode was first cleaned with freshly prepared piranha solution (1:3 mixture of 30% H2O2 and concentrated H2SO4) for 5 min and then rinsed thoroughly with double-distilled water. The electrode was then carefully polished by sonication in absolute alcohol and double-distilled water for 5 min. Finally, the electrode was electrochemically cleaned in 0.5 M H2SO4 until a stable cyclic voltammogram was obtained and then dried with purified nitrogen. After the pretreatment, a well ordered oligopeptide (RGD-MAP-C) was fabricated on the freshly cleaned gold electrode as reported in our previous work (15). For the electrochemical measurements, a 2 cm×1 cm×0.5 cm (width×length×height) cell chip chamber was fabricated by fixing a plastic chamber (Lab-Tek®, Thermo fisher scientific, USA) to the Au working electrode using PDMS (Polydimethylsiloxane). Afterward, rat pheochromocytoma (PC12) cells were seeded on the electrode at a density of 2×10^5 cells/chip and then immobilized via RGD-integrin interaction for 24 hrs in a standard cell culture environment. The cell-immobilized electrode was treated with 2 mM thymidine in culture medium (RPMI 1640) for 18 hrs, followed by an 8 hrs release (replaced by fresh medium), and then again with 2 mM thymidine for another 18 hrs to block cells in G1/S-phase (FIG. 1c). […]

PC12 cells [2] = assay: Differential pulse voltammetry (DPV) of cells on Au/RGD-MAP-C cell chip; conditions: PC12 cells on Au electrode; double thymidine block; PBS 0.01 M pH 7.4; vs Ag/AgCl (FIG. 2b)
Procedure: as §2

phosphohistone (p-HH^3) = assay: Western blot of synchronized PC12 cells, G2/M-phase specific protein p-HH3; conditions: Western blot of G1/S- or G2/M-blocked PC12 cells (FIG. 3d)
Procedure: as §1

## Cc1cn([C@H]2C[C@H](O)[C@@H](CO)O2)c(=O)[nH]c1=O [thymidine, Thymidine]
Cyclin B1
  cyclin B1 expression: expressed dominantly
PC12 cells [1]; 8 hrs release, FACS (FIG. 3b)
  cells fixed in G1/S-phase: Approximately 75%
PC12 cells [2]
  DPV peak potential of G1/S-phase blocked cells: +50 mV
Phosphohistone (p-HH^3)
  p-HH^3 expression: absent

## COC(=O)Nc1nc2ccc(C(=O)c3cccs3)cc2[nH]1 [nocodazole]
PC12 cells [1]; 4 hrs release, 100 ng/ml nocodazole 10 h, FACS (FIG. 3c)
  cells synchronized in G2/M-phase: ~72%
Phosphohistone (p-HH^3)
  p-HH^3 expression: expressed

— patent US9945841B2, “Cell cycle measuring method based on an electrochemical method” (INDUSTRY-UNIVERSITY COOPERATION FOUNDATION SOGANG UNIVERSITY, priority 2011, dated 2018)
